Legend:
[1] = system: Enterobacter aerogenes; test: Log10 reduction of viable facultative anaerobe cells in saline phosphate buffer suspension (serial dilution into anaerobic acid producing media vials); assay type: cell-based; conditions: for Log10 Reduction Facultative Anaerobes: pH 7.5 phosphate buffer, room temperature; for efficacy against the facultative anaerobe Enterobacter aerogenes (in words): agent alone
Description: (§1) A suspension of Desulfovibrio vulgaris plus Enterobacter aerogenes bacteria containing from 1××10^6 to 1×10^8 cells/mL was prepared in sterile pH 7.5 phosphate buffer containing varying levels of sodium chloride to give the desired total dissolved solids (TDS) concentration. Aliquots of this suspension were dosed with the indicated concentrations of a phosphonium compound and a hypohalite compound with the concentrations being measured as ppm by weight of the stated compounds added to the dosed suspension. The mixtures were allowed to stand at room temperature. At the designated contact times, each mixture was sampled to determine the total number of viable cells of both Desulfovibrio vulgaris and Enterobacter aerogenes by serial 10-fold dilution into API RP 38 media vials and anaerobic acid producing media vials, respectively. The vials were incubated at 37° C. for 72 hours. Results were recorded as cells per millilitre.
(§2) Aqueous media inoculated with anaerobe and facultative anaerobe culture and having a TDS of 10,000 mg l^−1; 20,000 mg l^−1; or 30,000 mg l^−1 was treated with treatment agents comprising: (i) sodium hypochlorite; (ii) tri n-butyl n-tetradecyl phosphonium chloride (TTPC) or (iii) a combination of sodium hypochlorite and TTPC.
(§3) TTPC was used in the form of Bellacide 355, an aqueous composition of TTPC and water consisting of water and […] of TTPC available from BWA Water Additives.
(§4) Sodium hypochlorite was used in the form of Clorox, an aqueous composition of sodium hypochlorite and water consisting of water and 6% by weight sodium hypochlorite available from The Clorox Company.
(§5) The efficacy of the treatment agents was evaluated by measuring the Log 10 Reduction of the anaerobe Desulfovibrio vulgaris and the facultative anaerobe Enterobacter aerogenes [after contact times of 10 and 30 minutes as detailed in Table 1. For TTPC and sodium hypochlorite the stated ppm values relate to the amount added. The addition of 35 ppm sodium hypochlorite to the aqueous system provided 2 ppm of free sodium hypochlorite in the treated aqueous system.

[2] = system: Desulfovibrio vulgaris; test: Log10 reduction of viable anaerobe cells in saline phosphate buffer suspension (serial dilution into API RP 38 media vials); assay type: cell-based; conditions: for Log10 Reduction Anaerobes: pH 7.5 phosphate buffer, room temperature; for efficacy against the anaerobe Desulfovibrio vulgaris (in words): agent alone
Description: as §1, §2, §3, §4, §5

[3] = TDS 20,000 mg l-1, contact time 30 minutes, listed as 4 (comparative)
[4] = TDS 30,000 mg l-1, contact time 10 minutes
[5] = TDS 30,000 mg l-1, contact times of 10 and 30 minutes
[6] = TDS 30,000 mg l-1, contact time 30 minutes
[7] = TDS 20,000 mg l-1, contact time 30 minutes, listed as 3 (comparative)

SMILES: CCCCCCCCCCCCCC[P+](CCCC)(CCCC)CCCC.[Cl-] [Example 4]
- Log10 Reduction Facultative Anaerobes [1, 3]: 5
- Log10 Reduction Anaerobes [2, 3]: 6

SMILES: [Na+].[O-]Cl [Example 11]
- Log10 Reduction Facultative Anaerobes [1, 4]: 2
- Log10 Reduction Anaerobes [2, 4]: 5

SMILES: OCl [Sodium hypochlorite, sodium hypochlorite]
- efficacy against the facultative anaerobe Enterobacter aerogenes (in words) [1, 5]: some efficacy
- efficacy against the anaerobe Desulfovibrio vulgaris (in words) [2, 5]: some efficacy

SMILES: CCCCCCCCCCCCCC[P+](CCCC)(CCCC)CCCC.[Cl-] [Example 2]
- Log10 Reduction Facultative Anaerobes ([1]; TDS 10,000 mg l-1, contact time 30 minutes, listed as 2 (comparative)): 8

SMILES: CCCCCCCCCCCCCC[P+](CCCC)(CCCC)CCCC.[Cl-] [Example 5]
- Log10 Reduction Facultative Anaerobes [1, 6]: 0
- Log10 Reduction Anaerobes [2, 6]: 0

SMILES: [Na+].[O-]Cl [Example 6]
- Log10 Reduction Facultative Anaerobes [1, 6]: 3
- Log10 Reduction Anaerobes [2, 6]: 3

SMILES: CCCCCCCCCCCCCC[P+](CCCC)(CCCC)CCCC.[Cl-] [Example 3]
- Log10 Reduction Facultative Anaerobes [1, 7]: 0
- Log10 Reduction Anaerobes [2, 7]: 3

SMILES: CCCCCCCCCCCCCC[P+](CCCC)(CCCC)CCCC.[Cl-] [Example 1]
- Log10 Reduction Facultative Anaerobes ([1]; TDS 10,000 mg l-1, contact time 30 minutes, listed as 1 (comparative)): 6
- Log10 Reduction Anaerobes ([2]; TDS 10,000 mg l-1, contact time 30 minutes): 6

SMILES: CCCCCCCCCCCCCC[P+](CCCC)(CCCC)CCCC.[Cl-] [TTPC, tri n-butyl n-tetradecyl phosphonium chloride]
- efficacy against the facultative anaerobe Enterobacter aerogenes (in words) [1, 6]: ineffective
- efficacy against the anaerobe Desulfovibrio vulgaris (in words) [2, 6]: ineffective

From patent US10905125B2, “Biocidal compositions and method of treating water using thereof” (BWA WATER ADDITIVES UK LIMITED, priority 2014, dated 2021)
